{
  "source": "patent US11472814B2",
  "about": "“Thienopyranones and furanopyranones as checkpoint inhibitors and modulators of anti-tumor immunity” (SignalRx Pharmaceuticals, Inc., priority 2017, dated 2022)",
  "key": {"[1]": {"system": "Bone marrow derived macrophages (BMDMs), M1 gene expression", "experiment": "M1 marker mRNA in LPS stimulated bone marrow derived macrophages (RT PCR)", "format": "cell-based, murine", "source_text": "[…] M2 markers Mmr, Ym1, Fizz1 and Mgl mRNA and M1 markers I11, 116 and Tnfa mRNA was quantitated by RT PCR. Values are mean±SEM (n=3-4). Expression of gene of interest is normalized to GAPDH. […] The data provide direct evidence that Compound 1 can block the immunosuppressive macrophage M2 gene expression and activate the M1 gene expression and therefore activate antitumor innate immune cell differentiation in vitro.\n(§1) Relative mRNA expression of IL4 or LPS polarized genes in murine bone marrow derived macrophages (BMDMs) treated with various concentrations of inhibitors in vitro. Conclusion: Compound 3 suppressed in vitro macrophage specific immunosuppressive M2 gene expression markers and augmented macrophage stimulatory immune response M1 genes respectively."}, "[2]": {"system": "Bone marrow derived macrophages (BMDMs), M2 gene expression", "experiment": "M2 marker mRNA in IL4 stimulated bone marrow derived macrophages (RT PCR)", "format": "cell-based, murine", "experimental": "Bone marrow derived macrophages (MOs) (BMDMs) were exposed to IL4 or LPS for 24 hours to stimulate the M2 or M1 macrophage transition in presence of Compound 1 and the known SYK inhibitor Bay-61-3606 at 1 μM conc. M2 markers Mmr, Ym1, Fizz1 and Mgl mRNA and M1 markers I11, 116 and Tnfa mRNA was quantitated by RT PCR. Values are mean±SEM (n=3-4). Expression of gene of interest is normalized to GAPDH. […] The data provide direct evidence that Compound 1 can block the immunosuppressive macrophage M2 gene expression and activate the M1 gene expression and therefore activate antitumor innate immune cell differentiation in vitro.\nas §1"}, "CT26 tumors": {"system": "CT26 tumors", "experiment": "CT26 tumor growth in immunodeficient NSG mice", "format": "in vivo", "conditions": "3 mg/kg", "source_text": "We investigated the effect of Compound 3 on immune cell in vitro and on tumor growth in in vivo in immunocompetent syngeneic tumor models and the effects on the macrophage and T cell immune compartment in vivo by this compound. […] In order to distinguish whether Compound 3 blocks tumor growth due to its effect on immune cell compartment and not on tumor compartment, we tested the effect of this chemotype on CT26 tumor growth in immunodeficient NSG mice vs immunocompetent Balb/c mice. […] Compound 3 has combinatorial immune-oncologic activity in vivo to stimulate anti-cancer innate and adaptive immunity in well-defined accepted immune competent murine models for cancer immunotherapy.\nConclusion: this establishes effect of Compound 3 as immune-oncologically active agent in cancer immunotherapy. In immunocompetent mice with same tumor cell ino kculum Compound 3 inhibited CT26 tumor growth by 58% decrease in tumor volume. (n=x, p<0.001, t test)."}, "[3]": {"system": "LLC tumors, Ifng and Gzmb mRNA", "experiment": "mRNA expression of Ifng and Gzmb in LLC tumors", "format": "in vivo, mice", "conditions": "normalized to GAPDH", "experimental": "Effect of Compound 3 treatment in vivo at 10 mg/kg dose on mRNA expression of interferon (Ifng) gamma and granzyme b (Gzmb) in LLC tumors implanted in vehicle vs Compound 3 treated mice (n=3, biological replicates, p<0.05, t test). Relative gene expression is normalized to a house keeping gene, GAPDH for comparison."}, "PI3K α": {"biological_target": "T1, PI3K α (Homo sapiens, UniProt P42336)", "T1 construct": "purchased Thermo Fisher Scientific-Biosciences Life Sciences Solutions, Madison, Wis; (contract assay service)", "T1 sequence (P42336 whole entry)": "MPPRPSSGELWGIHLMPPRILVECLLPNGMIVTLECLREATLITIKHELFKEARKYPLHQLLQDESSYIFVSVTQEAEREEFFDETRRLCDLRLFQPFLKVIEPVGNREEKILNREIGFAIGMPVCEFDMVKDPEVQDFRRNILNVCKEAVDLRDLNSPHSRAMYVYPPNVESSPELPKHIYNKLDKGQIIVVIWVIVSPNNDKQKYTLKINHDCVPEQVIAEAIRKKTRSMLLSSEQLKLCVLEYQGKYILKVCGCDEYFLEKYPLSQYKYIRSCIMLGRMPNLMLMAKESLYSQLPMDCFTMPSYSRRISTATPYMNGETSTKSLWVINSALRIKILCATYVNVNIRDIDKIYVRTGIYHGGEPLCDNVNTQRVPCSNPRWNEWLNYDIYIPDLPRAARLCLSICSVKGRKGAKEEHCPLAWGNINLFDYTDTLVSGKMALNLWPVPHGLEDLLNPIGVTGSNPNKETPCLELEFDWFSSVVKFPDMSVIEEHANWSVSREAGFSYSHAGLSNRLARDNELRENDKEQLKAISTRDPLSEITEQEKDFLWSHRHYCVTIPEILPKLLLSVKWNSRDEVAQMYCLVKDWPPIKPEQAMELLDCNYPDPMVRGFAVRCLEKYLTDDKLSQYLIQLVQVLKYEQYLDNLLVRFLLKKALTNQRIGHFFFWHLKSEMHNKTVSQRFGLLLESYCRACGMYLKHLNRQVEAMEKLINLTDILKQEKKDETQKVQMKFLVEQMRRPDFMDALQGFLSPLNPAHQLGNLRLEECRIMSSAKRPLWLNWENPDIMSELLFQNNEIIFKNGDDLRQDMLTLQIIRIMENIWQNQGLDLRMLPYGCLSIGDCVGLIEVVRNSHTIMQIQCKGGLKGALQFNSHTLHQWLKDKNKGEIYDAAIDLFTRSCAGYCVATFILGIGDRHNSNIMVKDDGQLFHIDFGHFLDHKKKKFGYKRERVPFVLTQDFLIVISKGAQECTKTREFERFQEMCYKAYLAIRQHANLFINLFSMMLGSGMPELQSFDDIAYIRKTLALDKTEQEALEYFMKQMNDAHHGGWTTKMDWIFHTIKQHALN", "T1 sequence (P27986 whole entry partner)": "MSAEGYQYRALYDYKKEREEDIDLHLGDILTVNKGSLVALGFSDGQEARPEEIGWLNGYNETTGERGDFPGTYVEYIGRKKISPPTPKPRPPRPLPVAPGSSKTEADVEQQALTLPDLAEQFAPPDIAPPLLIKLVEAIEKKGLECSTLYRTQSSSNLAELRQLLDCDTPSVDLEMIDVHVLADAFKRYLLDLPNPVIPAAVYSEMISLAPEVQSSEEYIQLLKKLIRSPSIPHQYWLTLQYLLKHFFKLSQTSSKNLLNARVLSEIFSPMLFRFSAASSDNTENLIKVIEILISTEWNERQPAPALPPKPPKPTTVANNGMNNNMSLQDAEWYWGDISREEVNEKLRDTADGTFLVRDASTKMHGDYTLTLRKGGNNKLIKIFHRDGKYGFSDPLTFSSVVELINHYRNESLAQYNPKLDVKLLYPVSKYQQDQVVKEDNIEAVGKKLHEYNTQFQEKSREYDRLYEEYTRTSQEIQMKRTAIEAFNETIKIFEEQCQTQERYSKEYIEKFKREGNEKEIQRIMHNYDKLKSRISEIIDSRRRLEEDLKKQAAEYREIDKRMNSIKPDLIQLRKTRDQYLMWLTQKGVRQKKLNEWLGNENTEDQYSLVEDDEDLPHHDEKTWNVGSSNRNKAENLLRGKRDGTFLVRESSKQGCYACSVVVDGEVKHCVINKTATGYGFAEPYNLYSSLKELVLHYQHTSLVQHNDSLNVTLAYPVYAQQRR", "experiment": "PI3K alpha inhibition IC50 (Thermo Fisher)", "format": "biochemical", "conditions": "10-point curve", "source_text": "The inhibitory activity of a compound of the invention against PI3K and/or BRD4 and/or SYK and/or CDK4/6 can be readily determined using methods known to the skilled artisan, or by commercial vendors offering such services. […] In vivo, PI3K inhibition can be determined from target tissue biopsies by standard tissue processing to disrupt cells and then performing Western Blot analysis to determine the presence or absence of pAKT (substrate of PI3K) relative to a control sample. The activity of a compound of the invention as an inhibitor of a bromodomain-containing protein, such as a BET protein, such as BRD2, BRD3, BRD4, and/or BRDT, or an isoform or mutant thereof, may be determined in vitro, in vivo, or in a cell line. In vitro assays include assays that determine inhibition of bromodomain-containing proteins. Alternatively, inhibitor binding may be determined by running a competition experiment where a provided compound is incubated with a bromodomain-containing protein, such as a BET protein bound to known ligands, labeled or unlabeled. For example, bromodomain inhibition can be determined in vitro using Alpha Screen Technology (http://www.reactionbiologv.com/webapps/site/NewsPDFs/Bromodomain%20Assay %20Platform %20for %20Drug %20Screening %20and %20Discovery.pdf). In vivo bromodomain inhibition can be determined indirectly by evaluating the amount of protein present of proteins whose genes' transcription is influenced or controlled by the bromodomain protein, for example, the MYCN protein transcription is controlled by BRD4 (J. E. Delmore et al., Cell 2011, 146, 904-917; A. Puissant, Cancer Discov. 2013, 3, 308-323). Bromodomain inhibition may also be predicted by in silico modeling as described below in the Examples. Additionally, the company Promega offers a SYK luminescent assay to determine a compound's ability to inhibit the SYK protein (https://www.promega.com/-/media/files/resources/protocols/kinase-enzyme-appnotes/syk-kinase-assay-protocol.pdf?la=en).\nCompounds of the invention were characterized for their ability to inhibit target proteins using third party vendors offering such services. PI3K alpha, gamma, and delta inhibition activity was determined by Thermo Fisher Scientific-Biosciences Life Sciences Solutions, Madison, Wis. The bromodomain protein inhibition (binding domain 1 and 2 of BRD4) as well as SYK inhibition was determined at Reaction Biology Corp., Malvern, Pa. […] The IC50 data (shown below in Table 5) was calculated from a 10-point curve and is expressed in nanomolar concentration (nM) rounded off to the nearest whole number. […]"}, "[4]": {"conditions": "Table 8, 200 nM, LPS polarized murine BMDMs, control = 1"}, "[5]": {"conditions": "Table 7, 200 nM, IL4 polarized murine BMDMs, control = 1"}},
  "note": "“Also recorded” adds a separate entry of the source.",
  "data": [
    {"smiles": "Cc1nn(-c2ccnc(Nc3ccc(-c4csc5c(=O)cc(N6CCOCC6)oc45)cc3)n2)cc1CN1CCC1", "note": "[Compound 3, 3-[p-(4-{4-[(1-Azetidinyl)methyl]-3-methyl-1H-pyrazol-1-yl}-2-pyrimidinylamino)phenyl]-5-morpholino-4-oxa-1-thia-7-indenone]", "values": [
      {"measurement": "Ifng relative mRNA expression (M1 gene)", "setting": "[1]; [4]", "result": "5.043 ± 1.9"},
      {"measurement": "Il1 relative mRNA expression (M1 gene)", "setting": "[1]; [4]", "result": "7.19 ± 0.9"},
      {"measurement": "Il6 relative mRNA expression (M1 gene)", "setting": "[1]; [4]", "result": "2.5 ± 0.2"},
      {"measurement": "Nos2 relative mRNA expression (M1 gene)", "setting": "[1]; [4]", "result": "2.458 ± 0.31"},
      {"measurement": "Tnfa relative mRNA expression (M1 gene)", "setting": "[1]; [4]", "result": "2.2 ± 0.3"},
      {"measurement": "macrophage stimulatory immune response M1 genes", "setting": "[1]; murine BMDMs, LPS polarized, various concentrations", "result": "augmented"},
      {"measurement": "Arg relative mRNA expression (M2 gene)", "setting": "[2]; [5]", "result": "0.107 ± 0.01"},
      {"measurement": "Il10 relative mRNA expression (M2 gene)", "setting": "[2]; [5]", "result": "0.058 ± 0.01"},
      {"measurement": "Mmr relative mRNA expression (M2 gene)", "setting": "[2]; [5]", "result": "0.143 ± 0.03"},
      {"measurement": "Tgfb relative mRNA expression (M2 gene)", "setting": "[2]; [5]", "result": "0.458 ± 0.01"},
      {"measurement": "Vegf relative mRNA expression (M2 gene)", "setting": "[2]; [5]", "result": "0.294 ± 0.04"},
      {"measurement": "macrophage immunosuppressive M2 gene expression markers", "setting": "[2]; murine BMDMs, IL4 polarized, various concentrations", "result": "suppressed"},
      {"measurement": "% Growth inhibition", "setting": "CT26 tumors; CT26 tumors in immunodeficient NSG mice, negative = increase in tumor growth", "result": "−33 ± 27", "unit": "%"},
      {"measurement": "CT26 tumor growth in NSG mice", "setting": "CT26 tumors; immunodeficient NSG mice", "result": "did not reduce CT26 tumor growth; also recorded: no significant effect"},
      {"measurement": "Ifng mRNA expression in LLC tumors", "setting": "[3]; 10 mg/kg in vivo, n=3, vehicle 0.8 ± 0.18", "result": "1.4 ± 0.27,"},
      {"measurement": "Gzmb mRNA expression in LLC tumors", "setting": "[3]; 10 mg/kg in vivo, n=3, vehicle 0.87 ± 0.27", "result": "1.87 ± 0.5"},
      {"measurement": "expression of Ifng and Gzmb in LLC tumors", "setting": "[3]; 10 mg/kg, vs vehicle", "result": "increased expression of the inflammatory cytokines, Ifng and GzmB; also recorded: increased the expression of immunostimulatory T cell immune effectors"},
      {"measurement": "IC50", "setting": "PI3K α", "result": "100 to 1000", "unit": "nM"}
    ]}
  ]
}
